The source of these data is patent publication US20260216138A1, “IDENTIFICATION OF OTUD7B INHIBITOR 7BI AND ITS APPLICATION IN REDUCING GROWTH OF NSCLC AND LEUKEMIA CELLS” (The University of North Carolina at Chapel Hill, priority 2023, published 2026).

One test deals with A549 cells. Put plainly: Colony formation / growth of A549 cells. It is filed as cell-based. To be noted: treated once for 10 days. The method, then: 500 cells from OTUD7B depleted A549 cells were seeded into each well of 6-well plates and cultured in the 37° C. incubator with 5% CO2 for 10-15 days until formation of visible colonies. Triplicates were performed. To test the effect of a given inhibitor on colony formation ability, 800 cells from A549, H520 and H1299 cell lines were seeded into each well of 6-well plates, respectively. Each inhibitor was added at indicated concentration the next day. Colonies were counted after 10 days of treatment. The colony staining method was as described. […] Colony numbers were counted manually. […]
2,000 cells from indicated NSLC cell lines were seeded into each well of 96-well plates. Cell viability was measured 3 days post-treatment using MTT assays following manufacturer's instruction. […] Inhibitor was added the next day at indicated concentration and cell viability was measured after 3-day treatment. For cell proliferation assays in THP1, K562 and HL60 cell lines, 1×10^6 cells from each indicated cell line were seeded in 12.5 cm2 cell culture flask and cells were counted by hemocytometer under microscope at indicated time to monitor cell proliferation. […] Inhibitor was added the next day at indicated concentrations and cell number was counted after 3 days treatment. […]

The target in the next test is T1, OTUD7A (Homo sapiens, UniProt Q8TE49).
T1 construct: OTUD7A (residues 1-462); GST (N, cleaved yes); made in house; host or cells: E. coli BL21-Codon Plus (DE3)-RIL
T1 sequence (Q8TE49 1-462): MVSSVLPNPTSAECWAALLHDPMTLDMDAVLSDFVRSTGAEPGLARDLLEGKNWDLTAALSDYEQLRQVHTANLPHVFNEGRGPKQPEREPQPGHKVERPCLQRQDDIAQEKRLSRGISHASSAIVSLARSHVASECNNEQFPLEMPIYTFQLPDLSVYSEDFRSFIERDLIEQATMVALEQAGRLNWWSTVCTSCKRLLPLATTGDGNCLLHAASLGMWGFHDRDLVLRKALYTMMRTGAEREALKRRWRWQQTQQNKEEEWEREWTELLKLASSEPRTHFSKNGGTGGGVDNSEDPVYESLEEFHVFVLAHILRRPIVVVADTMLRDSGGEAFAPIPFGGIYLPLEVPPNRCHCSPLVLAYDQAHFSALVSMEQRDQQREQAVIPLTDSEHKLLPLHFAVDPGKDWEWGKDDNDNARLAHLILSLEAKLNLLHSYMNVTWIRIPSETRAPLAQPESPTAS
Put plainly: Ubiquitin-AMC assay, OTUD7A. The test is classed as biochemical. Conditions: 50 μM 7Bi, 10 μM OTUD7A, 2 uM ubiquitin-AMC. The method, then:
50 μM 7Bi were incubated with 300 nM OTUD7B (residues 56-446), 10 μM OTUD7A (residues 1-462), 200 nM USP21 (residues 196-565), or 500 nM USP9X (residues 1551-1970) in reaction buffer (20 mM HEPES pH=8.0, 200 mM NaCl, 0.25 mg/mL BSA and 0.005% Tween-20) for 5 min at room temperature. Then, 2 uM ubiquitin-AMC was added to start the reaction. The fluorescence emission data was collected at an excitation wavelength of 355 nm and emission wavelength of 460 nm every 3 min. Reactions were completed three times to generate the error bars.

The test system of a further test is Akt-pS473. The test can be described thus: Akt-pS473 western blotting in NSCLC cells (A549, H358, H520, H1299). It is filed as cell-based. The procedure:
Cells were harvested and lysed in EBC buffer (50 mM Tris pH 7.5, 120 mM NaCl, 0.5% NP-40) supplemented with protease inhibitor cocktail (EDTA-free, mini-tablet) (Bimake) and phosphatase inhibitor cocktail (Bimake) by rotating in the cold room for 10 min followed by high-speed centrifugation at 4° C. The protein concentrations in supernatants of whole cell lysates were measured by NanoDrop OneC using the Bio-Rad Bradford protein assay reagent. Equal amounts of whole cell lysates were resolved on SDS-PAGE and immunoblotted with indicated antibodies. For immunoprecipitation analysis, 1 mg of total cell lysate was incubated with the indicated beads for 3-4 hr at 4° C. The recovered immuno-complexes were washed thoroughly three times with NETN buffer (20 mM Tris, pH 8.0, 100 mM NaCl, 1 mM EDTA and 0.5% NP-40) before being resuspended in SDS sample buffer and resolved on SDS-PAGE and immunoblotted with indicated antibodies.
Next, we used two approaches to search for possible OTUD7B inhibitors by monitoring Akt-pS473 changes including Akt-pS473 ELISA and western blotting in A549 cells treated with each of these 59 small molecules for 16 hrs at a concentration of 10 uM (FIG. 1A). In Akt-pS473 ELISA assays using Torin 2 (a pan-mTOR inhibitor) as a positive control and DMSO as a negative control (FIG. 1E), we found 15 compounds with an inhibitory ability above 30% (FIG. 1F). […]
Background: A western blot detects proteins with antibodies after separation by electrophoresis.

For another test, the system named is K562 cells. Put plainly: Leukemia cell proliferation, K562. To be noted: 72 hrs. The test is classed as cell-based. The method, then:
2,000 cells from indicated NSLC cell lines were seeded into each well of 96-well plates. Cell viability was measured 3 days post-treatment using MTT assays following manufacturer's instruction. For cell viability assays with inhibitor treatment, 2,000 cells from indicated NSLC and HEK293 cell lines were seeded in 96-well plate. Inhibitor was added the next day at indicated concentration and cell viability was measured after 3-day treatment. For cell proliferation assays in THP1, K562 and HL60 cell lines, 1×10^6 cells from each indicated cell line were seeded in 12.5 cm2 cell culture flask and cells were counted by hemocytometer under microscope at indicated time to monitor cell proliferation. To test inhibitor effects on THP1, K562 and HL60 cell growth, 2×10^5 cells were seeded in 12.5 cm2 cell culture flask. Inhibitor was added the next day at indicated concentrations and cell number was counted after 3 days treatment. Three independent experiments were performed to generate error bars.

As a reminder, the IC50 is the point on the concentration scale where inhibition reaches its midpoint. Turning to `Cc1cc(NC(=O)c2cnn(C)c2C(=O)Nc2cc(C)nn2C2CCCC2)n(C2CCCC2)n1` [7Bi], the cell growth result in the test on A549 cells is “reduced growth”. Further, the “inhibition of hydrolysis of ubiquitin-AMC by OTUD7A” value at OTUD7A was “but not its close family member OTUD7A”. For the same compound, in the test on Akt-pS473 (A549, H358, H520, H1299, 10 uM for 16 hrs, dose- and time-dependent), the “suppressing Akt-pS473 signal in at least 3 out of 4 NSCLC lines tested” value is “showed effects in suppressing Akt-pS473 signal”. Further, in the test with Akt-pS473 (NSCLC cells, read-out: IC50 values to inhibit Akt-pS473 signals), the IC50 was 1 to 10 µM. In the test on K562 cells, the cell proliferation entry is reported as “reduced proliferation”.
